Data: the supplement of paper PMC10307832

What was measured:
Assay in all cases: relative viability (nuclei count vs DMSO), 5 days (fraction); higher = more cells survive
NCI-H2405 = system: NCI-H2405
Summary of the method: (§1)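 Lung cancer cell lines were seeded in 1536-well plates and dosed by pin tool the next day, with either a single drug or a fixed anchor-drug dose combined with five library-drug doses (not always all listed) spaced in √10 steps. Five days later, one step fixed the cells and stained their nuclei (final 0.05% Triton X-100, 1% formaldehyde, 1 ug/ml Hoechst), and nuclei were counted on 4× images. Relative viability is the nuclei count in treated wells divided by the count in vehicle wells, and each value is the median of duplicate plates.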

EMC-BAC-2 = system: EMC-BAC-2
Summary of the method: as §1

NCI-H2085 = system: NCI-H2085
Summary of the method: as §1

NCI-H838 = system: NCI-H838
Summary of the method: as §1

NCI-H1793 = system: NCI-H1793
Summary of the method: as §1

NCI-H1395 = system: NCI-H1395
Summary of the method: as §1

LU99A = system: LU99A
Summary of the method: as §1

EPLC-272H = system: EPLC-272H
Summary of the method: as §1

NCI-H1651 = system: NCI-H1651
Summary of the method: as §1

NCI-H1944 = system: NCI-H1944
Summary of the method: as §1

NCI-H520 = system: NCI-H520
Summary of the method: as §1

HCC-827 = system: HCC-827
Summary of the method: as §1

NCI-H2087 = system: NCI-H2087
Summary of the method: as §1

NCI-H1563 = system: NCI-H1563
Summary of the method: as §1

SK-MES-1 = system: SK-MES-1
Summary of the method: as §1

NCI-H650 = system: NCI-H650
Summary of the method: as §1

NCI-H2023 = system: NCI-H2023
Summary of the method: as §1

ChaGo-K-1 = system: ChaGo-K-1
Summary of the method: as §1

LCLC-103H = system: LCLC-103H
Summary of the method: as §1

COR-L23 = system: COR-L23
Summary of the method: as §1

H3255 = system: H3255
Summary of the method: as §1

For O=c1cc(N2CCOCC2)oc2c(-c3cccc4c3sc3ccccc34)cccc12 + Cc1nc(Nc2ncc(C(=O)Nc3c(C)cccc3Cl)s2)cc(N2CCN(CCO)CC2)n1 [Dasatinib] (partner 0.075 µM), the relative viability (NCI-H2405; first compound 0.01 µM) was 0.188, the relative viability (NCI-H2405; first compound 0.03162 µM) was 0.224 and the relative viability (NCI-H2405; first compound 0.1 µM) was 0.201. The relative viability (NCI-H2405; first compound 0.3162 µM) was 0.238, the relative viability (NCI-H2405; first compound 1 µM) was 0.196 and the relative viability (EMC-BAC-2; first compound 0.01 µM) was 0.366. It also gave a relative viability (EMC-BAC-2; first compound 0.03162 µM) of 0.32, a relative viability (EMC-BAC-2; first compound 0.1 µM) of 0.342 and a relative viability (EMC-BAC-2; first compound 0.3162 µM) of 0.371. It also gave a relative viability (EMC-BAC-2; first compound 1 µM) of 0.344, a relative viability (NCI-H2085; first compound 0.01 µM) of 0.267 and a relative viability (NCI-H2085; first compound 0.03162 µM) of 0.241. It also gave a relative viability (NCI-H2085; first compound 0.1 µM) of 0.253, a relative viability (NCI-H2085; first compound 0.3162 µM) of 0.225 and a relative viability (NCI-H2085; first compound 1 µM) of 0.219. For the same molecule, the relative viability (NCI-H838; first compound 0.01 µM) was 0.278, the relative viability (NCI-H838; first compound 0.03162 µM) was 0.301 and the relative viability (NCI-H838; first compound 0.1 µM) was 0.319. The relative viability (NCI-H838; first compound 0.3162 µM) was 0.294, the relative viability (NCI-H838; first compound 1 µM) was 0.271 and the relative viability (NCI-H1793; first compound 0.01 µM) was 0.372. For the same molecule, the relative viability (NCI-H1793; first compound 0.1 µM) was 0.394, the relative viability (NCI-H1793; first compound 0.3162 µM) was 0.314 and the relative viability (NCI-H1793; first compound 1 µM) was 0.405. For the same molecule, the relative viability (NCI-H1395; first compound 0.01 µM) was 0.422, the relative viability (NCI-H1395; first compound 0.03162 µM) was 0.393 and the relative viability (NCI-H1395; first compound 0.1 µM) was 0.407. For the same molecule, the relative viability (NCI-H1395; first compound 0.3162 µM) was 0.367, the relative viability (NCI-H1395; first compound 1 µM) was 0.454 and the relative viability (LU99A; first compound 0.01 µM) was 0.552. It also gave a relative viability (LU99A; first compound 0.03162 µM) of 0.596, a relative viability (LU99A; first compound 0.1 µM) of 0.741 and a relative viability (LU99A; first compound 0.3162 µM) of 0.535. It also gave a relative viability (LU99A; first compound 1 µM) of 0.421, a relative viability (EPLC-272H; first compound 0.01 µM) of 0.445 and a relative viability (EPLC-272H; first compound 0.03162 µM) of 0.424. It also gave a relative viability (EPLC-272H; first compound 0.3162 µM) of 0.339, a relative viability (EPLC-272H; first compound 1 µM) of 0.263 and a relative viability (NCI-H1651; first compound 0.01 µM) of 0.421. For the same molecule, the relative viability (NCI-H1651; first compound 0.03162 µM) was 0.414, the relative viability (NCI-H1651; first compound 0.1 µM) was 0.395 and the relative viability (NCI-H1651; first compound 0.3162 µM) was 0.338. The relative viability (NCI-H1651; first compound 1 µM) was 0.519, the relative viability (NCI-H1944; first compound 0.01 µM) was 0.218 and the relative viability (NCI-H1944; first compound 0.03162 µM) was 0.234. It also gave a relative viability (NCI-H1944; first compound 0.1 µM) of 0.203, a relative viability (NCI-H1944; first compound 0.3162 µM) of 0.24 and a relative viability (NCI-H1944; first compound 1 µM) of 0.225. For the same molecule, the relative viability (NCI-H520; first compound 0.01 µM) was 0.184, the relative viability (NCI-H520; first compound 0.03162 µM) was 0.201 and the relative viability (NCI-H520; first compound 0.1 µM) was 0.231. It also gave a relative viability (NCI-H520; first compound 0.3162 µM) of 0.168, a relative viability (NCI-H520; first compound 1 µM) of 0.203 and a relative viability (HCC-827; first compound 0.01 µM) of 0.338. The relative viability (HCC-827; first compound 0.03162 µM) was 0.293, the relative viability (HCC-827; first compound 0.1 µM) was 0.323 and the relative viability (HCC-827; first compound 0.3162 µM) was 0.283. It also gave a relative viability (HCC-827; first compound 1 µM) of 0.328, a relative viability (NCI-H2087; first compound 0.01 µM) of 0.989 and a relative viability (NCI-H2087; first compound 0.03162 µM) of 1.02. The relative viability (NCI-H2087; first compound 0.1 µM) was 0.917, the relative viability (NCI-H2087; first compound 0.3162 µM) was 0.89 and the relative viability (NCI-H2087; first compound 1 µM) was 0.887. The relative viability (NCI-H1563; first compound 0.01 µM) was 0.445, the relative viability (NCI-H1563; first compound 0.03162 µM) was 0.451 and the relative viability (NCI-H1563; first compound 0.1 µM) was 0.445. It also gave a relative viability (NCI-H1563; first compound 0.3162 µM) of 0.51, a relative viability (NCI-H1563; first compound 1 µM) of 0.412 and a relative viability (SK-MES-1; first compound 0.01 µM) of 0.413. For the same molecule, the relative viability (SK-MES-1; first compound 0.03162 µM) was 0.363, the relative viability (SK-MES-1; first compound 0.1 µM) was 0.349 and the relative viability (SK-MES-1; first compound 0.3162 µM) was 0.447. The relative viability (SK-MES-1; first compound 1 µM) was 0.337, the relative viability (NCI-H650; first compound 0.03162 µM) was 0.493 and the relative viability (NCI-H650; first compound 0.1 µM) was 0.314. For the same molecule, the relative viability (NCI-H650; first compound 0.3162 µM) was 0.512, the relative viability (NCI-H650; first compound 1 µM) was 0.405 and the relative viability (NCI-H2023; first compound 0.01 µM) was 0.523. The relative viability (NCI-H2023; first compound 0.03162 µM) was 0.677, the relative viability (NCI-H2023; first compound 0.1 µM) was 0.612 and the relative viability (NCI-H2023; first compound 0.3162 µM) was 0.551. It also gave a relative viability (NCI-H2023; first compound 1 µM) of 0.513, a relative viability (ChaGo-K-1; first compound 0.01 µM) of 0.402 and a relative viability (ChaGo-K-1; first compound 0.03162 µM) of 0.641. It also gave a relative viability (ChaGo-K-1; first compound 0.1 µM) of 0.517, a relative viability (ChaGo-K-1; first compound 0.3162 µM) of 0.609 and a relative viability (ChaGo-K-1; first compound 1 µM) of 0.73. The relative viability (LCLC-103H; first compound 0.01 µM) was 0.491, the relative viability (LCLC-103H; first compound 0.03162 µM) was 0.412 and the relative viability (LCLC-103H; first compound 0.1 µM) was 0.539. It also gave a relative viability (LCLC-103H; first compound 0.3162 µM) of 0.449, a relative viability (LCLC-103H; first compound 1 µM) of 0.401 and a relative viability (COR-L23; first compound 0.01 µM) of 0.534. For the same molecule, the relative viability (COR-L23; first compound 0.03162 µM) was 0.496, the relative viability (COR-L23; first compound 0.1 µM) was 0.566 and the relative viability (COR-L23; first compound 0.3162 µM) was 0.446. It also gave a relative viability (COR-L23; first compound 1 µM) of 0.512, a relative viability (H3255; first compound 0.01 µM) of 0.348 and a relative viability (H3255; first compound 0.03162 µM) of 0.338. It also gave a relative viability (H3255; first compound 0.1 µM) of 0.337, a relative viability (H3255; first compound 0.3162 µM) of 0.379 and a relative viability (H3255; first compound 1 µM) of 0.345.
